Results from patent publication US10028992B2, “Methods of treating muscular dystrophy” (BOARD OF REGENTS OF THE NEVADA SYSTEM OF HIGHER EDUCATION …, priority 2012, dated 2018).

Tested on: α7 integrin promoter
Test: muscle cell-based assay: α7βgal+/− myoblasts/myotubes, LacZ reporter, β-galactosidase cleavage of FDG
Parameters: species or system mouse
Conditions: for EC50: Mus musculus, read-out: Fit LogAC50 (converted); for Score: Table 12 compound data; for Fit Curve Class: curve class number, key not given; for Fit Zero Activity [%]: activity at zero concentration
Procedure: An α7 integrin null mouse was produced in which exon 1 of the gene encoding the α7 integrin was replaced by the LacZ reporter. In these mice, all the transcriptional regulatory elements of the α7 integrin promoter were retained, allowing β-galactosidase to report expression of 7 integrin. A primary myoblast cell line (designated α7βgal^+/−) isolated from 10 day old α7^+/− pups were analyzed for the ability of β-galactosidase to report α7 integrin expression. α7βgal^+/− myoblasts were differentiated and subjected to X-gal staining and western analysis (FIGS. 1A and 1B).
The activity of the α7 integrin promoter was measured by β-galactosidase cleavage of the non-fluorescent compound fluorescein di-β-D-galactopyranoside (FDG) to fluorescein. This assay was used to screen compound libraries to identify molecules that up-regulate α7 integrin expression in muscle.
Also evaluated was the effect of various isoforms of laminin and the ligand for α7β1 integrin on integrin expression. Positive hits were subjected to dose-response analysis, western analysis and a myostatin counterscreen (a negative regulator of muscle growth).

[1] = given as log AC50 (negative values)

Row | SMILES | EC50 [1] [µM] | Score | Fit Curve Class | Fit HillSlope (curve fit) | Fit Zero Activity [%] (curve fit) | Fit Infinite Activity [%] (curve fit, activity at infinite concentration) | Fit LogAC50 [1]
1 | Cn1ccc(C(=O)Nc2cccnc2Cl)n1 [Compound 140] | 10 | 42 | 2.2 | 2.7868 | −4.0391 |  | 
2 | COC(=O)c1ccc(C2C(C(=O)c3cc4ccccc4o3)=C(O)C(=O)N2CCN2CCOCC2)cc1 (stereo not shown) [Compound 141] | 10 | 42 | 2.1 | 4.9549 | −17.8968 |  | 
3 | COc1cc(NC(=O)C2C3C=CC(C3)C2C(=O)O)ccc1NC(=O)c1ccccc1 (stereo not shown) [Compound 142] | 8.91 | 42 | 2.1 | 2.4064 | −18.7775 |  | 
4 | COCc1c(C(=O)N/N=C(\C)c2ccc(OCc3ccccc3)cc2)nnn1-c1nonc1N [Compound 143] | 10 | 42 | 2.1 | 4.4495 | 4.6719 |  | 
5 | O=C(Nc1ccc(N2CCN(C(=O)c3ccccc3F)CC2)cc1)c1cncc(Br)c1 [Compound 144] | 12.6 | 42 | 2.1 | 4.095 | 9.7776 |  | 
6 | COc1cc(NC(=O)CN(C)S(=O)(=O)c2ccc3c(c2)CC(C)N3C(C)=O)cc(OC)c1OC (stereo not shown) [Compound 145] | 10 | 42 | 2.2 | 4.9549 | 0.4668 |  | 
7 | CC(=O)c1ccc(N(C(=O)CNC(=O)c2ccco2)C(C(=O)NC2CCCC2)c2ccc(C)o2)cc1 (stereo not shown) [Compound 146] | 10 | 42 | 2.1 | 4.9549 |  |  | 
8 | Cc1nnc(NC(=O)CSc2nnc(CCNC(=O)c3ccccc3F)n2C)s1 [Compound 147] | 11.2 | 42 | 2.1 | 2.0937 | 1.0531 |  | 
9 | COc1ccc(CCNC(=O)Cn2nnc(C(=O)Nc3ccc(Br)cc3)c2N)cc1OC [Compound 148] | 11.2 | 42 | 2.1 | 2.3531 | −28.7719 |  | 
10 | C/C(=N\NC(=O)c1cc(C)oc1C)c1ccc2ccccc2c1 [Compound 149] | 8.91 | 42 | 2.2 | 1.111 | −1.9678 |  | 
11 | CC(C)c1ccc(NC(=O)CN2C(=O)c3ccccc3S2(=O)=O)cc1 [Compound 150] | 10 | 42 | 2.2 | 4.5045 | −0.2112 |  | 
12 | CCCCC(C(=O)NC1CCCC1)N(C(=O)c1snc(C(N)=O)c1N)c1ccc(C)cc1 (stereo not shown) [Compound 151] | 10 | 42 | 2.1 | 3.132 | −26.3814 |  | 
13 | COc1ccc(S(=O)(=O)Nc2ccc(S(=O)(=O)Nc3nccs3)cc2)cc1 [Compound 152] | 12.6 | 42 | 2.2 | 1.1341 | −8.4801 |  | 
14 | Cc1cc(C(=O)Nc2cccc3ccccc23)c(C)o1 [Compound 153] | 7.94 | 42 | 2.1 | 1.5095 | −21.2671 |  | 
15 | CC1(C)Cc2c(cnn2-c2cccc(F)c2)C(NC(=O)CCc2cnccn2)C1 (stereo not shown) [Compound 154] | 3.16 | 42 | 2.1 | 0.9 | −46.353 |  | 
16 | Cc1c(C(=O)N2CCCCC2)c(S(=O)(=O)Nc2cccc(Br)c2)c(C)n1C [Compound 155] | 10 | 42 | 2.1 | 3.99 | −32.1225 |  | 
17 | O=S(=O)(N/C(=N/C1CCCCC1)c1ccccc1F)c1ccccc1 [Compound 156] | 10 | 42 | 2.2 | 2.5334 | −0.0336 |  | 
18 | O=[N+]([O-])c1cccc(S(=O)(=O)N2CCN(S(=O)(=O)N3CCOCC3)CC2)c1 [Compound 158] | 10 | 42 | 2.2 | 1.9282 | −0.5234 |  | 
19 | CC(=O)Nc1ccc(NC(=O)c2cc(=O)c3cc(C)cc(C)c3o2)cc1 [Compound 159] | 11.2 | 42 | 2.1 | 4.095 | −2.9033 |  | 

Row | SMILES | EC50 [1] [µM] | Score | Fit Curve Class | Fit HillSlope (curve fit) | Fit Zero Activity [%] (curve fit) | Fit Infinite Activity [%] (curve fit, activity at infinite concentration) | Fit LogAC50 [1]
20 | COc1ccc(/C=C(\NC(=O)c2ccc(C)cc2)C(=O)Nc2ccc(C(=O)O)cc2)cc1 [Compound 160] | 11.2 | 42 | 2.1 | 4.095 | −2.4804 |  | 
21 | O=S(=O)(c1ccccc1)N1CCCC(c2nc(O)c3nnn(Cc4cccc(Cl)c4)c3n2)C1 (stereo not shown) [Compound 161] | 3.98 | 42 | 2.1 | 1.1 | −42.9418 |  | 
22 | COc1cccc(NC(=O)c2ccc3c(c2)CCCC3)c1 [Compound 162] | 5.62 | 42 | 2.1 | 2.2526 | −31.8121 |  | 
23 | CN(C)CCNc1ncnc2sc(-c3ccccc3)cc12 [Compound 163] | 10 | 42 | 2.2 | 4.045 | −0.8551 |  | 
24 | CCCN1C2CCCC1CC(NC(=O)c1cccc([N+](=O)[O-])c1)C2 (stereo not shown) [Compound 164] |  | 42 | 2.1 | 4.5045 | 0.8371 | 91.825 | −5
25 | O=C(NCCc1ccc(F)cc1)N[C@@H](Cc1ccccc1)C(=O)O [Compound 165] | 11.2 | 42 | 2.1 | 4.5045 | −20.12 |  | 
26 | Cl.O=C(CN1CCOCC1)NCc1cc([N+](=O)[O-])ccc1O [Compound 166] | 12.6 | 42 | 2.1 | 1.3987 | 10.3691 |  | 
27 | COc1cc(Cl)cc(CN2CCC(CCC(=O)NC3CC3)CC2)c1OC [Compound 167] | 7.08 | 42 | 2.1 | 1.7885 | −38.2233 |  | 
28 | COc1ccccc1C(=O)NCCOc1ccc(C(C)(C)C)cc1 [Compound 168] | 8.91 | 42 | 2.2 | 1.9673 | −0.7805 |  | 
29 | COc1nccc(NCc2ccccc2)c1C#N [Compound 169] | 10 | 42 | 2.1 | 4.4495 | −19.7104 |  | 
30 | Cc1ccc(-c2csnn2)cc1 [Compound 170] | 10 | 42 | 2.1 | 4.4495 | 3.4732 |  | 
31 | Cc1nc2c(cnn2-c2ccccc2)c(=O)n1/N=C/c1ccccc1 [Compound 171] | 10 | 42 | 2.2 | 3.132 | 9.9159 |  | 
32 | CN(C)/C(S)=N/c1cccc(C(F)(F)F)c1 [Compound 172] | 10 | 42 | 2.2 | 2.3332 | 8 |  | 
33 | CC(C)(C)N/C=C(\C#N)S(=O)(=O)c1ccc(Br)cc1 [Compound 173] | 11.2 | 42 | 2.2 | 0.9 | 7.5952 |  | 
34 | O=C(O)CCCNC(=O)CCn1nnc2ccccc2c1=O [Compound 174] | 11.2 | 42 | 2.1 | 1.8579 | −20.386 |  | 
35 | CCNC(=O)COC(=O)c1cc(-c2ccco2)nc2ccccc12 [Compound 175] | 5.62 | 42 | 2.1 | 1.3443 | −62.687 |  | 
36 | COc1cccc(N2C(=O)CC(N3CCc4ccccc4C3)C2=O)c1 (stereo not shown) [Compound 176] | 10 | 42 | 2.1 | 4.9549 | −19.4361 |  | 
37 | COC(=O)C1=NNC2(C)C(=O)N(c3ccc(C)cc3)C(=O)C12 (stereo not shown) [Compound 177] | 10 | 42 | 2.2 | 4.9549 | 0.9153 |  | 
38 | CCCOc1nc(SCCC)nc2c1cnn2-c1ccccc1 [Compound 178] | 11.2 | 42 | 2.1 | 1.1341 | −22.6542 |  | 
